This test concerns our antisera (rabbit polyclonal antisera against BSA-MBG conjugate). Briefly: competition ELISA with rabbit polyclonal anti-MBG antisera. Format: binding. To be noted: competition assay. As for the experimental part:
Initially, both BSA and BLG were employed as the carrier protein. In the former case, excess BSA was added to the reaction mixture to inhibit anti-BSA antibodies from binding to the conjugate. When the BLG-marinobufagenin congugate became available, BLG-marinobufagenin was used for antibody detection. This ELISA format was used as the basis for a competitive ELISA for the detection of marinobufagenin in body specimens.
In an alternative approach, rabbits were immunized with the BSA-MBG conjugate for the production of polyclonal antisera. […] The resulting polyclonal sera were assessed for the presence of MBG-specific antibodies by ELISA (FIG. 11). In this particular format, two of the rabbits produced a strong humoral immune response that allowed dilution of the primary (rabbit) antiserum down to 1 in 4*10^6, even when using a relatively insensitive photometric readout. […] This particular assay has now been equipped with a chemifluorescent readout (using commercially available reagents) and has now reached the target sensitivity of less than 10 pg MBG/ml. As expected, rat urine samples can be measured without prior treatment, but rat plasma and/or serum samples require solid phase extraction using a C8 solid phase and acetonitrile in the mobile phase. Upon drying the eluate of obtained from the extraction cartridge by vacuum centrifugation, MBG can be measured in the circulation of the rat.

Regarding `C[C@]12CC[C@H](O)C[C@H]1CC[C@@H]1[C@@H]2CC[C@]2(C)[C@@H](c3ccc(=O)oc3)C[C@H]3O[C@]132` [RBG, resibufogenin], the cross-reactivity with antisera entry is “only measurable at extremely high doses”.

The values above are taken from patent US20110207154A1, “METHOD FOR DETERMINATION OF MARIN[…] AND COMPOUNDS […] SUCH METHOD” (SCOTT & WHITE HEALTHCARE, priority 2010, published 2011).
